The values below come from patent publication US8501239B2 (priority 2005, dated 2013).

Each structure is given as a SMILES string. Read-outs that look alike come from different tables or passages of the source.

For experiment [1], the system named is Adult Sprague-Dawley rats. In kind it is in vivo, rat.
In experiment [2] the test system is humans. The settings on record: cited from earlier work.
Experiment [3] relates to rat brain. The settings on record: model of focal ischemia-reperfusion injury in the rat brain; cited from earlier work.
Experiment [4] concerns contusion SCI. As to the kind of experiment: Tissue sparing following moderate contusion SCI, T10 lesion epicenter. Type of experiment: in vivo. The settings on record: 5 mg/kg, 15 mins post-injury, 48 hours after SCI, p<0.05. How it is done: Bar graphs representing the extent of tissue sparing measured through cross-sections of the T10 segment injury epicenters 48 hours after a moderate (150 kydn) contusion SCI. […] Bars represent group means, SEM (n=5-6/group). Using an unpaired t-test, * indicates p<0.05 compared to vehicle-treated groups.

In the case of `N#CC(C#N)=NNc1ccc(OC(F)(F)F)cc1` [FCCP, carbonyl cyanide 4-trifluoromethoxy phenylhydrazone], the “tissue sparing compared to vehicle-treated animals” value in experiment [1] (TBI rats, dosed 5 min post-injury (5 mg/kg 2,4-DNP, 2.5 mg/kg FCCP, 6.2 mg/kg), 15 days post-injury, p<0.01) was “significantly increased tissue sparing”.

Regarding `O=[N+]([O-])c1ccc(O)c([N+](=O)[O-])c1` [2,4-DNP, 2,4-dinitrophenol], the “weight loss as a function of dose” value in experiment [2] (FIG. 1 left panel, regardless of diet or lifestyle) is reported as “very linear increase in weigh loss”. Besides, the “metabolism as a function of dosage” value in experiment [2] (FIG. 1 right panel) is reported as “linear increase in metabolism”. Moreover, the “reduction of infarct volume” value in experiment [3] is on record as “approximately 40%”. Besides, in experiment [1] (rat, in vivo), the “tissue sparing compared to vehicle-treated animals” value is on record as “significantly increased tissue sparing”. The “cross-sectional area of tissue preservation at lesion epicenter” value in experiment [4] (vs vehicle (DMSO)) is “significantly greater cross-sectional area of tissue preservation”. Further, the “percentage of tissue sparing at the lesion epicenters” value in experiment [4] (vs vehicle controls) is “significantly higher percentage of tissue sparing”.
